The test concerns the target catalytic domain 2 (CD2) of HDAC6 (Homo sapiens (Human), UniProt Q9UBN7). Put plainly: Cellular target engagement assay - NanoBRET. It counts as cell-based. The following applies: NanoLuc-HDAC6(CD2) in HEK293T cells, 2 hours, read-out: IC50 (HDAC6(CD2) interaction). As for the experimental part:
NanoBRET target engagement was performed against the catalytic domain 2 (CD2) of HDAC6, with minor modifications of kit manufacturer protocol (Promega). Expression of exogenous NanoLuc-HDAC6(CD2) fusion and in HEK293T was achieved following transient transfection with FuGENE HD Transfection Reagent (Promega). The intracellular target engagement assay on HDAC6(CD2) was performed in a 384-well plate format with 8,000 cells per well and a tracer concentration of 0.125 μM or 0.600 μM for HDAC6(CD2). Compounds (dissolved in 100% DMSO) or DMSO (vehicle) were added either manually by diluting them in culture medium at 8× final assay concentration and then adding 5 μL to assay plate or in an automated way by adding […] compound to 5 μL OptiMEM without phenol red (Gibco) using the Echo650 (Labcyte). Tracer solution was added to the cells before seeding 35 μL cell/tracer mixture in the assay plate. The final reaction volume was 40 μL, final DMSO concentration was 1.4% (manual compound addition) or 1.25% (automated compound addition). Assay plates were incubated at 37° C. in a humidified atmosphere containing 5% C02 for 2 hours. The NanoBRET Nano-glo Substrate/Inhibitor was prepared by diluting NanoBRET Nano-Glo Substrate (1:332) and Extracellular Inhibitor (1:1000) in assay medium (Promega). […] BRET ratios were calculated from acceptor/donor signal ratio (mBRET=acceptor/donor*1000) and normalized for each plate. Percentage inhibition was calculated by setting the mBRET obtained with cells without tracer to 100%, while the mBRET obtained with uninhibited cells with tracer was set to 0%. IC50-values were calculated from the percentage inhibition with the log(inhibitor) vs. response—Variable slope (four parameters) nonlinear regression in GraphPad Prism software.
In general terms: BRET reads energy transfer from a luciferase to a nearby fluorophore.

SMILES strings stand for the structures. Some results are limits rather than exact numbers.

catalytic domain 2 (CD2) of HDAC6, sequence (Q9UBN7 482-800): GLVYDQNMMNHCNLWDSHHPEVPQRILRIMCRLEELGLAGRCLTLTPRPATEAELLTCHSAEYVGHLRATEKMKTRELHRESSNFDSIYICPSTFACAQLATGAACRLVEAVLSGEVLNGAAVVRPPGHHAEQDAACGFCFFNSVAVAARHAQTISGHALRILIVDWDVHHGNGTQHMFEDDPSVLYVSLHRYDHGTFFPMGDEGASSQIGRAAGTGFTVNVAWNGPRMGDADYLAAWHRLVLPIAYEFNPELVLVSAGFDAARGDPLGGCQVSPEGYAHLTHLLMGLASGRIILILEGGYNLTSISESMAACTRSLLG

By IC50 is commonly meant the concentration needed to halve the response being measured. Turning to `CN(Cc1ccc(C(=O)CSc2nc(C(F)(F)F)nc3ncccc23)s1)C(=O)CO` [Compound 131, 2-hydroxy-N-methyl-N-((5-(2-((2-(trifluoromethyl)pyrido[2,3-d]pyrimidin-4-yl)thio)acetyl)thiophen-2-yl)methyl)acetamide], the IC50 was not above 100 nM. With `COc1ccc2nc(C(F)(F)F)nc(SCC(=O)c3ccc(CNC(=O)C(C)(C)O)s3)c2c1` [Compound 134, 2-hydroxy-N-((5-(2-((6-methoxy-2-(trifluoromethyl)quinazolin-4-yl)thio)acetyl)thiophen-2-yl)methyl)-2-methylpropanamide] the figure was 100 to 500 nM; with `CCn1ncc2c(SCC(=O)c3ccc(CNC(=O)CO)s3)nc(C(F)(F)F)nc21` [Compound 136, N-((5-(2-((1-ethyl-6-(trifluoromethyl)-1H-pyrazolo[3,4-d]pyrimidin-4-yl)thio)acetyl)thiophen-2-yl)methyl)-2-hydroxyacetamide], not above 100 nM.

Turning to `COc1ccc2nc(C(F)F)nc(SCC(=O)c3ccc(CNC(=O)CO)s3)c2c1` [Compound 139, N-((5-(2-((2-(difluoromethyl)-6-methoxyquinazolin-4-yl)thio)acetyl)thiophen-2-yl)methyl)-2-hydroxyacetamide], the IC50 lay in the range of 100 to 500 nM.

`COc1cccc2nc(C)nc(SCC(=O)c3ccc(CNC(=O)CO)s3)c12` [Compound 143, 2-hydroxy-N-((5-(2-((5-methoxy-2-methylquinazolin-4-yl)thio)acetyl)thiophen-2-yl)methyl)acetamide]: the IC50 was 100 to 500 nM.

For `CCOc1ccc2nc(C)nc(SCC(=O)c3ccc(CNC(=O)CO)s3)c2c1` [Compound 144, N-((5-(2-((6-ethoxy-2-methylquinazolin-4-yl)thio)acetyl)thiophen-2-yl)methyl)-2-hydroxyacetamide], the IC50 is not above 100 nM. For `CCOc1cc2c(SCC(=O)c3ccc(CNC(=O)CO)s3)nc(C)nc2cn1` [Compound 145, N-((5-(2-((6-ethoxy-2-methylpyrido[3,4-d]pyrimidin-4-yl)thio)acetyl)thiophen-2-yl)methyl)-2-hydroxyacetamide], the IC50 is not above 100 nM. With `Cc1nc(SCC(=O)c2ccc(CNC(=O)CO)s2)c2c(F)c(Cl)ccc2n1` [Compound 146, N-((5-(2-((6-chloro-5-fluoro-2-methylquinazolin-4-yl)thio)acetyl)thiophen-2-yl)methyl)-2-hydroxyacetamide] the figure was not above 100 nM. With `Cc1nc(SCC(=O)c2ccc(CNC(=O)CO)s2)c2cc(N(C)C)ncc2n1` [Compound 149, N-((5-(2-((6-(dimethylamino)-2-methylpyrido[3,4-d]pyrimidin-4-yl)thio)acetyl)thiophen-2-yl)methyl)-2-hydroxyacetamide] the figure was not above 100 nM. With `Cc1nc(SCC(=O)c2ccc(CNC(=O)CO)s2)c2cc(C(F)(F)F)cc(N(C)C)c2n1` [Compound 150, N-((5-(2-((8-(dimethylamino)-2-methyl-6-(trifluoromethyl)quinazolin-4-yl)thio)acetyl)thiophen-2-yl)methyl)-2-hydroxyacetamide] the figure was not above 100 nM; with `CNc1cc(C(F)(F)F)cc2c(SCC(=O)c3ccc(CNC(=O)CO)s3)nc(C)nc12` [Compound 151, 2-hydroxy-N-((5-(2-((2-methyl-8-(methylamino)-6-(trifluoromethyl)quinazolin-4-yl)thio)acetyl)thiophen-2-yl)methyl)acetamide], 100 to 500 nM.

`COc1cnc2nc(C)nc(SCC(=O)c3ccc(CN(C)C(=O)CO)s3)c2c1` [Compound 162, 2-hydroxy-N-((5-(2-((6-methoxy-2-methylpyrido[2,3-d]pyrimidin-4-yl)thio)acetyl)thiophen-2-yl)methyl)-N-methylacetamide]: the IC50 lay within 100 to 500 nM. With `COc1ccc2nc(C)nc(SCC(=O)c3ccc(CNC(=O)C4CCCO4)s3)c2c1` (stereo not drawn) [Compound 171, N-((5-(2-((6-methoxy-2-methylquinazolin-4-yl)thio)acetyl)thiophen-2-yl)methyl)tetrahydrofuran-2-carboxamide] the figure was 100 to 500 nM. `COc1ccc2nc(C)nc(SCC(=O)c3ccc(CNC(=O)C(F)F)s3)c2c1` [Compound 172, 2,2-difluoro-N-((5-(2-((6-methoxy-2-methylquinazolin-4-yl)thio)acetyl)thiophen-2-yl)methyl)acetamide]: the IC50 is 100 to 500 nM.

For the compound `COc1ccc2nc(C)nc(SCC(=O)c3ccc(CNC(=O)CN)s3)c2c1` [Compound 177, 2-amino-N-((5-(2-((6-methoxy-2-methylquinazolin-4-yl)thio)acetyl)thiophen-2-yl)methyl)acetamide], the IC50 was 100 to 500 nM. Take `COc1ccc2nc(C)nc(SCC(=O)c3ccc(CNC(=O)C4CN(C)C4)s3)c2c1` [Compound 178, N-((5-(2-((6-methoxy-2-methylquinazolin-4-yl)thio)acetyl)thiophen-2-yl)methyl)-1-methylazetidine-3-carboxamide]: the IC50 is not above 100 nM. With `CNCC(=O)NCc1ccc(C(=O)CSc2nc(C)nc3ccc(OC)cc23)s1` [Compound 183, N-((5-(2-((6-methoxy-2-methylquinazolin-4-yl)thio)acetyl)thiophen-2-yl)methyl)-2-(methylamino)acetamide] the figure was 100 to 500 nM. Under `COc1ccc2nc(C)nc(SCC(=O)c3ccc(CNC(=O)C4CCCN4)s3)c2c1` (stereo not drawn) [Compound 184, N-((5-(2-((6-methoxy-2-methylquinazolin-4-yl)thio)acetyl)thiophen-2-yl)methyl)pyrrolidine-2-carboxamide] stands 100 to 500 nM.

As to `COc1ccc2nc(C)nc(SCC(=O)c3ccc(CNC(=O)[C@H](C)O)s3)c2c1` [Compound 185, (S)-2-hydroxy-N-((5-(2-((6-methoxy-2-methylquinazolin-4-yl)thio)acetyl)thiophen-2-yl)methyl)propanamide], the IC50 is not above 100 nM. Under `COc1ccc2nc(C)nc(SCC(=O)c3ccc(CNC(=O)[C@@H](C)O)s3)c2c1` [Compound 186, (R)-2-hydroxy-N-((5-(2-((6-methoxy-2-methylquinazolin-4-yl)thio)acetyl)thiophen-2-yl)methyl)propanamide] stands 100 to 500 nM. With `O=C(CO)NCc1ccc(C(=O)CSc2nc3c(C(F)(F)F)cccc3o2)s1` [Compound 196, 2-hydroxy-N-((5-(2-((4-(trifluoromethyl)benzo[d]oxazol-2-yl)thio)acetyl)thiophen-2-yl)methyl)acetamide] the figure was 1000 to 10000 nM; with `CCc1nc(SCC(=O)c2ccc(CNC(=O)C(C)(C)C)s2)c2ccccc2n1` [Example 13, N-((5-(2-((2-ethylquinazolin-4-yl)thio)acetyl)thiophen-2-yl)methyl)pivalamide], 100 to 500 nM. With `CC(C)(C)C(=O)NCc1ccc(C(=O)CSc2nc(C3CCC3)nc3ccccc23)s1` [Example 14, N-((5-(2-((2-cyclobutylquinazolin-4-yl)thio)acetyl)thiophen-2-yl)methyl)pivalamide] the figure was 100 to 500 nM; with `COc1ccc2nc(C)nc(SCC(=O)c3ccc(CNC(=O)C(C)(C)C)s3)c2c1` [Example 17, N-((5-(2-((6-methoxy-2-methylquinazolin-4-yl)thio)acetyl)thiophen-2-yl)methyl)pivalamide], 100 to 500 nM; with `Cc1nc(SCC(=O)c2ccc(CNC(=O)C(C)(C)C)s2)c2ncccc2n1` [Example 18, N-((5-(2-((2-methylpyrido[3,2-d]pyrimidin-4-yl)thio)acetyl)thiophen-2-yl)methyl)pivalamide], 100 to 500 nM. For the compound `Cn1cc2c(SCC(=O)c3ccc(CNC(=O)C(C)(C)C)s3)nc(C(F)(F)F)nc2n1` [Example 22, N-((5-(2-((2-methyl-6-(trifluoromethyl)-2H-pyrazolo[3,4-d]pyrimidin-4-yl)thio)acetyl)thiophen-2-yl)methyl)pivalamide], the IC50 is not above 100 nM. With `Cn1ncc2c(SCC(=O)c3ncc(CNC(=O)C(C)(C)C)s3)ncnc21` [Example 27, N-((2-(2-((1-methyl-1H-pyrazolo[3,4-d]pyrimidin-4-yl)thio)acetyl)thiazol-5-yl)methyl)pivalamide] the figure was 100 to 500 nM; with `COc1ccc2nc(C)nc(SCC(=O)c3ccc(CNC(=O)C4CC4(F)F)s3)c2c1` (stereo not drawn) [Example 39, 2,2-difluoro-N-((5-(2-((6-methoxy-2-methylquinazolin-4-yl)thio)acetyl)thiophen-2-yl)methyl)cyclopropane-1-carboxamide], 500 to 1000 nM; with `COc1ccc2nc(C)nc(SCC(=O)c3ccc(CNC(=O)C(F)(F)C(F)(F)F)s3)c2c1` [Example 40, 2,2,3,3,3-pentafluoro-N-((5-(2-((6-methoxy-2-methylquinazolin-4-yl)thio)acetyl)thiophen-2-yl)methyl)propanamide], 1000 to 10000 nM. Under `Cn1cc2c(SCC(=O)c3ccc(CNC(=O)C4CC4)s3)nc(C(F)(F)F)nc2n1` [Example 41, N-((5-(2-((2-methyl-6-(trifluoromethyl)-2H-pyrazolo[3,4-d]pyrimidin-4-yl)thio)acetyl)thiophen-2-yl)methyl)cyclopropanecarboxamide] stands not above 100 nM.

Source of the values: US20250051319A1 (AUGUSTINE THERAPEUTICS, priority 2021, published 2025).
